In ChEMBL document CHEMBL4834432, “Diverse Prenylated Bibenzyl Enantiomers from the Chinese Liverwort Radula apiculata and Their Cytotoxic Activities” (J Nat Prod, 2021):
Counter-ions that a name gives are not always drawn. Activity calls are given as the source filed them. The calls are words filed in the database; no cut-off is given here.

How the values were obtained:
A549 = assay: Cytotoxicity against human A549 cells assessed as cell viability inhibition for 48 hrs by MTT assay; format: functional, cell-based; settings: A549, 48 h
MCF7 = assay: Cytotoxicity against human MCF-7 cells assessed as cell viability inhibition for 48 hrs by MTT assay; format: functional, cell-based; settings: MCF7, 48 h
PC-3 [1] = assay: Cytotoxicity against human PC-3 cells assessed as cell viability inhibition for 48 hrs by MTT assay; format: functional, cell-based; settings: PC-3, 48 h
NCI-H1299 = assay: Cytotoxicity against human […] cells assessed as cell viability inhibition for 48 hrs by MTT assay; format: functional, cell-based; settings: NCI-H1299, 48 h
PC-3 [2] = assay: Induction of apoptosis in human PC-3 cells assessed as mitochondrial membrane potential loss at 2 uM incubated for 24 hrs by JC1 staining based flow cytometric analysis (reference value: 100%); format: functional, cell-based
PC-3 [3] = assay: Induction of apoptosis in human PC-3 cells assessed as early apoptotic cells at 4 uM incubated for 24 hrs by annexin V/propidium iodide based flow cytometry (reference value: 2.71%); format: functional
PC-3 [4] = assay: Induction of apoptosis in human PC-3 cells assessed as necrotic cells at 6 uM incubated for 24 hrs by annexin V/propidium iodide based flow cytometry (reference value: 1.93%); format: functional
PC-3 [5] = assay: Induction of apoptosis in human PC-3 cells assessed as necrotic cells at 4 uM incubated for 24 hrs by annexin V/propidium iodide based flow cytometry (reference value: 1.93%); format: functional
PC-3 [6] = assay: Induction of apoptosis in human PC-3 cells assessed as late apoptotic cells at 2 uM incubated for 24 hrs by annexin V/propidium iodide based flow cytometry (reference value: 3.89%); format: functional
PC-3 [7] = assay: Induction of apoptosis in human PC-3 cells assessed as increase in cleaved PARP level at 2 to 6 uM incubated for 24 hrs by Western blot analysis; format: functional, cell-based; settings: dose 2-6 µM
PC-3 [8] = assay: Induction of apoptosis in human PC-3 cells assessed as increase in Bax protein level incubated for 24 hrs by Western blot analysis; format: functional, cell-based; settings: dose 2-6 µM
PC-3 [9] = assay: Induction of apoptosis in human PC-3 cells assessed as increase in cleaved caspase-9 level at 2 to 6 uM incubated for 24 hrs by Western blot analysis; format: functional, cell-based; settings: dose 2-6 µM
PC-3 [10] = assay: Induction of apoptosis in human PC-3 cells assessed as nuclear shrinkage at 2 uM incubated for 24 hrs by DAPI staining analysis; format: functional, cell-based
PC-3 [11] = assay: Induction of apoptosis in human PC-3 cells assessed as necrotic cells at 2 uM incubated for 24 hrs by annexin V/propidium iodide based flow cytometry (reference value: 1.93%); format: functional
PC-3 [12] = assay: Induction of apoptosis in human PC-3 cells assessed as early apoptotic cells at 6 uM incubated for 24 hrs by annexin V/propidium iodide based flow cytometry (reference value: 2.71%); format: functional
PC-3 [13] = assay: Induction of apoptosis in human PC-3 cells assessed as late apoptotic cells at 6 uM incubated for 24 hrs by annexin V/propidium iodide based flow cytometry (reference value: 3.89%); format: functional
PC-3 [14] = assay: Induction of apoptosis in human PC-3 cells assessed as early apoptotic cells at 2 uM incubated for 24 hrs by annexin V/propidium iodide based flow cytometry (reference value: 2.71%); format: functional
PC-3 [15] = assay: Induction of apoptosis in human PC-3 cells assessed as mitochondrial membrane potential loss at 6 uM incubated for 24 hrs by JC1 staining based flow cytometric analysis (reference value: 100%); format: functional, cell-based
PC-3 [16] = assay: Induction of apoptosis in human PC-3 cells assessed as granular apoptotic body formation at 2 uM incubated for 24 hrs by DAPI staining analysis; format: functional, cell-based
PC-3 [17] = assay: Induction of apoptosis in human PC-3 cells assessed as mitochondrial membrane potential loss at 4 uM incubated for 24 hrs by JC1 staining based flow cytometric analysis (reference value: 100%); format: functional, cell-based
PC-3 [18] = assay: Induction of apoptosis in human PC-3 cells assessed as late apoptotic cells at 4 uM incubated for 24 hrs by annexin V/propidium iodide based flow cytometry (reference value: 3.89%); format: functional

Row | Compound | IC50 (A549) | IC50 (MCF7) | IC50 (PC-3 [1]) | IC50 (NCI-H1299) | other results
1 | CC1(C)Oc2cc(O)cc(CCc3ccccc3)c2C2=C1O[C@@H]1c3c(CCc4ccccc4)cc(O)cc3OC(C)(C)[C@H]21 | 3.6 µM | 4.5 µM | 3.2 µM | 6.2 µM | 
2 | CC1(C)Oc2cc(O)cc(CCc3ccccc3)c2C2=C1O[C@H]1c3c(CCc4ccccc4)cc(O)cc3OC(C)(C)[C@@H]21 | > 10 µM | > 10 µM | > 10 µM | > 10 µM | 
3 | CC1(C)C=Cc2c(CCc3ccccc3)cc(O)c(C3CC(C)(C)Oc4cc(O)cc(CCc5ccccc5)c43)c2O1 (racemic) | 6.5 µM | 5.7 µM | 8.2 µM | 8.2 µM | 
4 | CC12CC(c3c(CCc4ccccc4)cc(O)cc3O1)C1C(C2)c2c(CCc3ccccc3)cc(O)cc2OC1(C)C (racemic) | 5.8 µM | 4.6 µM | 5.4 µM | 7.2 µM | 
5 | CC1(C)Oc2cc(O)cc(CCc3ccccc3)c2C(C2=Cc3c(CCc4ccccc4)cc(O)cc3OC2(C)C)C1=O (racemic) | 4.5 µM | 4.9 µM | 4.1 µM | 6.4 µM | 
6 | CC1(C)Oc2cc(O)cc(CCc3ccccc3)c2C2=C1OC1c3c(CCc4ccccc4)cc(O)cc3OC(C)(C)C21 (racemic) | 3.7 µM | 5 µM | 3.4 µM | 6.6 µM | Activity (PC-3 [2]): Active; Activity (PC-3 [3]): 1.4%; Activity (PC-3 [4]): 18.81%; Activity (PC-3 [5]): 2.55%; Activity (PC-3 [6]): 5.68%; Activity (PC-3 [7]): Active; Activity (PC-3 [8]): Active; Activity (PC-3 [9]): Active; Activity (PC-3 [10]): Active; Activity (PC-3 [11]): 4.12%; Activity (PC-3 [12]): 1.82%; Activity (PC-3 [13]): 60.74%; Activity (PC-3 [14]): 2.65%; Activity (PC-3 [15]): Active; Activity (PC-3 [16]): Active; Activity (PC-3 [17]): Active; Activity (PC-3 [18]): 7.81%
7 | CC(C)=CCc1c(O)cc2c(c1CCc1ccccc1)C1(C(=O)O2)c2c(CCc3ccccc3)cc(O)cc2OC1(C)C (racemic) | 2.8 µM | 3.6 µM | 1.5 µM | 6.9 µM | 
8 | CC1(C)C=Cc2c(cc3c(c2CCc2ccccc2)C2(C(=O)O3)c3c(CCc4ccccc4)cc(O)cc3OC2(C)C)O1 (racemic) | 2.6 µM | 5.4 µM | 1.4 µM | 5.8 µM | 
9 | CC1(C)Oc2cc(O)cc(CCc3ccccc3)c2C2OC3c4c(CCc5ccccc5)cc(O)cc4OC(C)(C)C3C21 (racemic) | 3.1 µM | 5.8 µM | 3.5 µM | 6.7 µM | 
10 | CC1=CC2c3c(CCc4ccccc4)cc(O)cc3OC(c3c(O)cc(O)cc3CCc3ccccc3)C2C(C)(C)C1 (racemic) |  | 9.8 µM | 8.2 µM |  | 
11 | COc1cccc2c1C(=O)c1c(O)c3c(c(O)c1C2=O)C[C@@](O)(C(=O)CO)C[C@@H]3O[C@H]1C[C@H](N)[C@H](O)[C@H](C)O1 [DOXORUBICIN HYDROCHLORIDE] | 1.2 µM |  | 0.4 µM | 4.7 µM | 
